Assay results taken from ChEMBL document CHEMBL3137667, “[Drug-induced liver injury; fourteenth updated edition of the bibliographic database of liver injuries and related drugs]” (Gastroenterol Clin Biol, 2004).

How the values were obtained:
[1] = Highest frequency of moderate liver toxicity observed during clinical trials, expressed as a percentage. [column '% BIOL' in source]; conditions: human
[2] = Highest frequency of acute liver toxicity observed during clinical trials, expressed as a percentage. [column '% AIGUE' in source]; conditions: human
[3] = human
[4] = human; remark: listed apart in the source
[5] = human; remark: listed apart in the source
[6] = human, serum
[7] = Times to onset, minimal and maximal, observed in the indexed observations. [column 'DELAI' in source]; conditions: human
[8] = Proposed mechanism(s) of liver damage. [column 'MEC' in source]; conditions: human
[9] = human, serum, 4383 h
[10] = human; remark: listed apart in the source
[11] = human; remark: listed apart in the source
[12] = human, serum; remark: listed apart in the source
[13] = human; remark: listed apart in the source
[14] = human; remark: listed apart in the source
[15] = human; remark: listed apart in the source
[16] = human; remark: listed apart in the source
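Throughout, for Hepatotoxicity (association with vascular disease): count of indexed literature references reporting vascular liver injury in humans, e.g. peliosis hepatitis, hepatic veno-occlusive disease or Budd-Chiari syndrome.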
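Throughout, for Hepatotoxicity (benign tumour): value is a count of indexed literature references citing a benign tumour confirmed by histopathology.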
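Throughout, for Hepatotoxicity (choleostasis): human cholestatic liver injury, shown by histopathology or by peak ALT or AST elevation over alkaline phosphatase ratio below 2, value counts indexed literature reports.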
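Throughout, for Hepatotoxicity (chronic liver disease): chronic liver injury confirmed by histopathology or persistently raised serum aminotransferase activity beyond 6 months, value given as the count of indexed literature references.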
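Throughout, for Hepatotoxicity (cirrhosis): value is a count of indexed literature references reporting cirrhosis confirmed by histopathology.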
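Throughout, for Hepatotoxicity (cytolytic): human cytolytic liver injury, shown by histopathology or by a ratio above 5 of peak ALT or AST elevation to alkaline phosphatase elevation, value counts indexed references.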
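Throughout, for Hepatotoxicity (granulomatous hepatitis): value is a count of indexed literature references reporting granulomatous liver disease confirmed by histopathology.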
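Throughout, for Hepatotoxicity (malignant tumour): malignant tumour confirmed by histopathology, value gives the count of indexed literature references reporting it.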
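Throughout, for Hepatotoxicity (severe hepatitis): human clinical data: severe hepatitis, meaning potentially life-threatening liver failure or clinically observed cases, the value counts how many indexed literature references report it.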
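Throughout, for Hepatotoxicity (steatosis): steatosis confirmed by histopathology, value is the count of indexed references.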

| Molecule | Hepatotoxicity (moderate) [1] [%] | Hepatotoxicity (acute) [2] [%] | Hepatotoxicity (granulomatous hepatitis) [3] | Hepatotoxicity (benign tumour) [4] | Hepatotoxicity (choleostasis) [5] | Hepatotoxicity (acute) [6] | Hepatotoxicity (time to onset) [7] | Hepatotoxicity (mechanism) [8] | Hepatotoxicity (chronic liver disease) [9] | Hepatotoxicity (steatosis) [10] | Hepatotoxicity (malignant tumour) [11] | Hepatotoxicity (moderate) [12] | Hepatotoxicity (association with vascular disease) [13] | Hepatotoxicity (cirrhosis) [14] | Hepatotoxicity (cytolytic) [15] | Hepatotoxicity (severe hepatitis) [16] |
| --- | --- | --- | --- | --- | --- | --- | --- | --- | --- | --- | --- | --- | --- | --- | --- | --- |
| CC(=O)c1ccc(S(=O)(=O)NC(=O)NC2CCCCC2)cc1 [ACETOHEXAMIDE] | 0 | 0 | 0 | 0 | 0 | 6 | 3 weeks - 17 months | Dose-dependant | 0 | 0 | 0 | 0 | 0 | 1 | 2 | 0 |
| CC1=C(/C=C/C(C)=C/C=C/C(C)=C\C(=O)O)C(C)(C)CCC1 [ISOTRETINOIN] | 44.4 | 8.8 | 0 | 0 | 0 | 3 | 4 months | Dose-dependant | 0 | 1 | 0 | 35 | 0 | 0 | 1 | 0 |
| O=c1[nH]c2ccccc2n1CCCN1CCN(C(c2ccccc2)c2ccccc2)CC1 [OXATOMIDE] | 8.3 | 0 | 0 | 0 | 2 | 4 | 10 days - 3 months | Allergic | 0 | 0 | 0 | 2 | 0 | 0 | 3 | 0 |
| NADROPARIN CALCIUM | 66.7 | 0 | 0 | 0 | 0 | 0 | 5 days - 1 week | Dose-dependant | 0 | 0 | 0 | 8 | 0 | 0 | 0 | 0 |
| CO/N=C(\C(=O)N[C@@H]1C(=O)N2C(C(=O)OC(C)OC(C)=O)=C(COC(N)=O)CS[C@H]12)c1ccco1 (stereo partly drawn) [CEFUROXIME AXETIL] | 20 | 0.2 | 0 | 0 | 1 | 2 | 4 days | Allergic | 0 | 0 | 0 | 31 | 0 | 0 | 0 | 0 |
| CN1CCN(CCCN2c3ccccc3Sc3ccccc32)CC1 [PERAZINE] | 43 | 0.3 | 0 | 0 | 1 | 3 | 1.5 months - 1 year | Dose-dependant | 0 | 0 | 0 | 5 | 0 | 0 | 2 | 0 |
| O=C(O)C1=C(CSc2nnnn2CS(=O)(=O)O)CS[C@@H]2[C@H](NC(=O)[C@H](O)c3ccccc3)C(=O)N12 [CEFONICID] | 29 | 5.9 | 0 | 0 | 0 | 2 | 4 days - 20 days | Allergic | 0 | 0 | 0 | 10 | 0 | 0 | 0 | 0 |
| Cc1cc2c(s1)Nc1ccccc1N=C2N1CCN(C)CC1 [OLANZAPINE] | 30 | 0 | 0 | 0 | 1 | 2 | 13 days - 15 months | Allergic, Dose-dependant | 0 | 1 | 0 | 13 | 0 | 0 | 2 | 0 |
| CN1C(=O)OC(C)(C)C1=O [TRIMETHADIONE] | 0 | 0 | 0 | 0 | 0 | 3 | 2 weeks - 1 month | Allergic | 0 | 0 | 0 | 1 | 0 | 0 | 1 | 0 |
| CCC(C)n1ncn(-c2ccc(N3CCN(c4ccc(OC[C@H]5CO[C@](Cn6cncn6)(c6ccc(F)cc6F)O5)cc4)CC3)cc2)c1=O (stereo partly drawn) [SAPERCONAZOLE] | 0 | 0 | 0 | 0 | 0 | 0 | 8 weeks | Dose-dependant | 0 | 0 | 0 | 1 | 0 | 0 | 0 | 0 |
| CCCc1nn(C)c2c(=O)[nH]c(-c3cc(S(=O)(=O)N4CCN(C)CC4)ccc3OCC)nc12 | 0 | 0 | 0 | 0 | 0 | 2 | 2 days - 4 months | Dose-dependant | 0 | 0 | 0 | 0 | 0 | 0 | 2 | 0 |
| CC(C(=O)O)c1ccc2c(c1)[nH]c1ccc(Cl)cc12 (stereo not drawn) [CARPROFEN] | 56.3 | 0 | 0 | 0 | 0 | 0 | 1 week - 1 month | Dose-dependant | 0 | 0 | 0 | 5 | 0 | 0 | 0 | 0 |
| c1ccc2c(CCC3CCNCC3)c[nH]c2c1 [INDALPINE] | 0 | 0 | 0 | 0 | 1 | 1 | 25 days - 4 months | Allergic | 0 | 1 | 0 | 1 | 0 | 0 | 1 | 0 |
